According to patent publication US11040952B2, “Phthalazinone compound, method for preparation thereof, pharmaceutical composition thereof, and use thereof” (SHANGHAI INSTITUTE OF MATERIA MEDICA, CHINESE ACADEMY OF …, priority 2017, dated 2021):
Read-outs that look alike come from different tables or passages of the source.

What was measured:
[1] = tested on: HBV; assay: HBV DNA content in the supernatant of cell culture (real-time PCR); format: cell-based, hepatitis B virus (HBV); conditions: inhibition of HBV DNA replication, HepG2.2.15 supernatant, 8 days
Outline: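 HepG2.2.15 cells stably carrying full-length HBV exposed to compounds for 8 days in DMEM with 10% FBS, medium renewed on day 4. Supernatant virion HBV DNA extracted and quantified by real-time PCR against a 1e^7-1e^4 IU/ml standard curve; IC50 calculated.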

[2] = biological target: T1, HBV capsid (Hepatitis B virus genotype D subtype ayw, UniProt P03146); assay: HBV capsid assembly, non-denaturing agarose gel electrophoresis; format: cell-based; conditions: FIG. 1; for content of HBV DNA in the capsid: Southern blot with HBV-specific probes; for generation of abnormal capsid (electrophoretic migration): non-denaturing agarose gel, anti-HBcAg Western blot
T1 construct: expressed in transfected cells
Description: 1×10^6 dispersed cells were added with […] of cell lysate (50 mM Tris-HCl pH 7.5, 1 mM EDTA, 0.5% Nonidet P-40), and lysed on ice for 15 min, with vortexing every 5 min to make sure that the cells were sufficiently lysed. The lysed cells were centrifuged at 10,000×g for 10 min at 4° C. to remove nuclei and cell debris. 20 μl of the cell lysate was added into the well of 1.2% or 1.8% agarose gel. Electrophoresis was run at 70V for 2.5 h at 4° C. […] After electrophoresis, the membrane-transferring was performed by siphon overnight. One sample was transferred to a nitrocellulose membrane (Amersham™ Hybond-ECL, GE), and the capsid was detected with anti-HBcAg antibody (Abcam) using Western blot method; another sample was in situ denatured with a denaturing solution (1.5 M NaCl, 0.5 M NaOH) for 45 min, neutralized with a neutralizing solution (1.5 M NaCl, 1 M Tris-HCl pH 7.4) for 45 min, and transferred to a nylon membrane (Amersham™ Hybond-N+, GE), and then the level of nucleic acid in the capsid was detected with HBV-specific probes by using Southern blot method.

[3] = MTT assay for cytotoxicity; format: cell-based, Human; conditions: human, HepG2.2.15 cells, half (50%) lethal concentration
Outline: (§1)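 HBV-transfected HepG2.2.15 cells were cultured with compound for 8 days at 37 °C in DMEM/10% FBS, with medium changed on day 4. Viability was read by MTT (4 h, then 12 h lysis, OD570) against control wells. CC50 is the concentration cutting viability by 50%.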

[4] = tested on: HepG2.2.15 cells; assay: MTT assay for cytotoxicity; format: cell-based, Human; conditions: 8 days, half (50%) lethal concentration
Outline: as §1

[5] = Tissue distribution in mice; format: in vivo; conditions: po 10 mg/kg; for concentration at 1 h / concentration at 3 h / concentration at 8 h: mouse
Description: 10 μl of a plasma and tissue sample was placed in a 1.5 ml centrifuge tube, added with 100 μl of an internal standard solution (5.00 ng/ml verapamil and 50.0 ng/ml Glibenclamide solution in acetonitrile), vortexed for 60 seconds, and then centrifuged for 3 min (at 12000 rpm); 75 μl of the supernatant was transferred to a 96-well plate loaded with an equal volume of water, and shaken for mixing well and then analyzed. The injection volume was 10 μl. Internal standard: an appropriate amount of verapamil and glibenclamide standards were dissolved and diluted in dimethyl sulfoxide (DMSO), shaken for mixing well, and prepared into a stock solution with a mass concentration of 2000 μg/ml, which was further diluted into internal standard working solutions of 5.00 ng/ml and 50.0 ng/ml. Stock solution: an appropriate amount of the compound was weighted and formulated into a 2.00 mg/ml stock solution with DMSO. Working solution: The stock solution was stepwisely diluted to obtain the solutions at each gradient concentration. 5.00 μl of reference standard working solution was added to 45.0 μl of a mice blank plasma and blank tissue. Then it was treated according to the method described in the section of “Sample pretreatment method”. Administration solution: a certain amount of a compound was precisely weighed and formulated into a 2.00 mg/ml milky white suspension in a ratio of 2.5% DMSO+97.5% (0.5% MC). Approximately 0.1 ml of orbital blood and liver was collected in EDTAK2 for anticoagulation from each animal that had been anesthetized with isoflurane. For the PO group, the blood was collected at 1 h, 3 h, and 8 h after administration of the test compound. After collection, the blood sample was analyzed by using comparative compounds I-70 and I-88.

[6] = Hepatitis B virus, HepG2.2.15, 192 h
[7] = liver, 1 h, read-out: Mean drug concentration, Liver
[8] = liver, 3 h, read-out: Mean drug concentration, Liver
[9] = liver, 8 h, read-out: Mean drug concentration, Liver
[10] = plasma, 1 h, read-out: Mean drug concentration, Plasma
[11] = plasma, 3 h, read-out: Mean drug concentration, Plasma
[12] = plasma, 8 h, read-out: Mean drug concentration, Plasma

T1 sequence (P03146 whole entry): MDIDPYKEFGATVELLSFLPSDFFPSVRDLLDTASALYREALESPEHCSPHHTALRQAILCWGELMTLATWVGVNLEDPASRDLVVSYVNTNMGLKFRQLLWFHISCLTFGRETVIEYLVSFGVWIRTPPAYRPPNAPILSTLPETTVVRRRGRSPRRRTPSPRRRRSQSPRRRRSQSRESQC

Structure (SMILES) | IC50 [1, 6] | content of HBV DNA in the capsid [2] | generation of abnormal capsid (electrophoretic migration) [2] | CC50 at 8 days [3] | concentration at 1 h [5, 10] | concentration at 3 h [5, 11] | other results
O=c1c2ccccc2c(-c2cccnc2F)nn1Cc1ccc(Cl)cc1 [Compound I-3] | 500 nM | significantly reduced | induce the generation of an abnormal capsid with faster electrophoretic migration speed | > 100000 nM | – | – | –
COc1ccc(-c2nn(Cc3ccc(Cl)cc3)c(=O)c3ccccc23)c(F)n1 [Compound I-4] | – | – | – | – | – | – | IC50 [1]: 3100 nM; CC50 [4]: > 100000 nM
O=c1c2ccccc2c(-c2ccc(F)nc2F)nn1Cc1ccc(Cl)cc1 [Compound I-9] | 300 nM | significantly reduced | induce the generation of an abnormal capsid with faster electrophoretic migration speed | 40700 nM | – | – | –
Cc1ccc(-c2nn(Cc3ccc(Cl)cc3)c(=O)c3ccccc23)c(F)n1 [Compound I-10] | 100 nM | significantly reduced | induce the generation of an abnormal capsid with faster electrophoretic migration speed | 81800 nM | 61 ng/mL | 12.5 ng/mL | concentration at 1 h [5, 7]: 476 ng/g; concentration at 3 h [5, 8]: 318 ng/g; concentration at 8 h [5, 9]: 2.91 ng/g; liver targeting [5]: good liver targeting in mice; Mean drug concentration, Plasma ([5]; 8 h): BLQ
Nc1ccc(-c2nn(Cc3ccc(Cl)cc3)c(=O)c3ccccc23)c(F)n1 [Compound I-11] | 900 nM | significantly reduced | induce the generation of an abnormal capsid with faster electrophoretic migration speed | 22600 nM | 33.3 ng/mL | 32.5 ng/mL | concentration at 1 h [5, 7]: 1220 ng/g; concentration at 3 h [5, 8]: 1410 ng/g; concentration at 8 h [5, 9]: 815 ng/g; concentration at 8 h [5, 12]: 23 ng/mL; liver targeting [5]: good liver targeting in mice
CNc1ccc(-c2nn(Cc3ccc(Cl)cc3)c(=O)c3ccccc23)c(F)n1 [Compound I-12] | 600 nM | significantly reduced | induce the generation of an abnormal capsid with faster electrophoretic migration speed | 15700 nM | – | – | –
COc1ccc(-c2nn(Cc3ccc(Cl)cc3)c(=O)c3ccccc23)c(F)n1 [Compound I-20] | – | – | – | – | – | – | IC50 [1]: 1300 nM; CC50 [4]: 33300 nM
[2H]C(c1ccc(Cl)cc1)n1nc(-c2ccc(C)nc2F)c2ccccc2c1=O (stereo not drawn) [Compound I-24] | 400 nM | significantly reduced | induce the generation of an abnormal capsid with faster electrophoretic migration speed | > 100000 nM | – | – | –
[2H]C(c1ccc(Cl)cc1)n1nc(-c2ccc(F)nc2F)c2ccccc2c1=O (stereo not drawn) [Compound I-26] | 900 nM | significantly reduced | induce the generation of an abnormal capsid with faster electrophoretic migration speed | > 100000 nM | – | – | –
Cc1cc(-c2ccc(F)nc2F)nn(Cc2ccc(Cl)cc2)c1=O [I-70, reference compound] | – | – | – | – | 161 ng/mL | 71.7 ng/mL | concentration at 8 h [5, 12]: 17.3 ng/mL; Mean drug concentration, Liver ([5]; 1 h): BLQ^a; Mean drug concentration, Liver ([5]; 3 h): BLQ; Mean drug concentration, Liver ([5]; 8 h): BLQ
Cc1ccc(-c2cc(C)c(=O)n(Cc3ccc(Cl)cc3)n2)c(F)n1 [I-88, reference compound] | – | – | – | – | 169 ng/mL | 180 ng/mL | concentration at 1 h [5, 7]: 34.2 ng/g; concentration at 3 h [5, 8]: 9.64 ng/g; concentration at 8 h [5, 12]: 0.993 ng/mL; Mean drug concentration, Liver ([5]; 8 h): BLQ
N#Cc1ccc(Cn2nc(-c3ccc(F)nc3F)c3ccccc3c2=O)cc1 [IV-5] | 120 nM | – | – | > 100000 nM | 154 ng/mL | 63.2 ng/mL | concentration at 1 h [5, 7]: 1030 ng/g; concentration at 3 h [5, 8]: 1050 ng/g; concentration at 8 h [5, 9]: 1190 ng/g; concentration at 8 h [5, 12]: 80.1 ng/mL; liver targeting [5]: good liver targeting in mice
N#Cc1ccc(Cn2nc(-c3ccc(C(F)(F)F)nc3F)c3ccccc3c2=O)cc1 [IV-15] | 270 nM | – | – | > 100000 nM | 549 ng/mL | 437 ng/mL | concentration at 1 h [5, 7]: 7270 ng/g; concentration at 3 h [5, 8]: 4460 ng/g; concentration at 8 h [5, 9]: 2800 ng/g; concentration at 8 h [5, 12]: 257 ng/mL; liver targeting [5]: good liver targeting in mice
CN(C)CCNc1ccc(-c2nn(Cc3ccc(C#N)cc3)c(=O)c3ccccc23)c(F)n1 [IV-37] | – | – | – | – | – | – | IC50 [1]: 2180 nM; CC50 [4]: 86500 nM
CC1(C)OCC(CNc2nc(F)c(-c3nn(Cc4ccc(C#N)cc4)c(=O)c4ccccc34)cc2Cl)O1 (stereo not drawn) [IV-79] | 347 nM | – | – | > 100000 nM | – | – | –
N#Cc1ccc(Cn2nc(-c3cc(Cl)c(NCC(O)CO)nc3F)c3ccccc3c2=O)cc1 (stereo not drawn) [IV-80] | < 98 nM | – | – | > 100000 nM | – | – | –
CC(O)CNc1ccc(-c2nn(Cc3ccc(C#N)cc3)c(=O)c3ccccc23)c(F)n1 (stereo not drawn) [IV-81] | 334 nM | – | – | 65200 nM | – | – | –
CC(O)CNc1nc(F)c(-c2nn(Cc3ccc(C#N)cc3)c(=O)c3ccccc23)cc1Cl (stereo not drawn) [IV-82] | 209 nM | – | – | 71900 nM | – | – | –
N#Cc1ccc(Cn2nc(-c3ccc(NCCC(F)(F)F)nc3F)c3ccccc3c2=O)cc1 [IV-83] | 413 nM | – | – | > 100000 nM | – | – | –
N#Cc1ccc(Cn2nc(-c3cc(Cl)c(NCCC(F)(F)F)nc3F)c3ccccc3c2=O)cc1 [IV-84] | < 98 nM | – | – | 63500 nM | – | – | –
